US8030303B2, “Salt of morpholine compound” (Mitsubishi Tanabe Pharma Corporation, priority 2006, dated 2011)

Assays:
CCR3 = biological target: T1, CCR3 (Homo sapiens, UniProt P51677); details: known from WO2006/028284, Table 1 of Experimental Example 1; cited from earlier work
T1 sequence (P51677 1-355): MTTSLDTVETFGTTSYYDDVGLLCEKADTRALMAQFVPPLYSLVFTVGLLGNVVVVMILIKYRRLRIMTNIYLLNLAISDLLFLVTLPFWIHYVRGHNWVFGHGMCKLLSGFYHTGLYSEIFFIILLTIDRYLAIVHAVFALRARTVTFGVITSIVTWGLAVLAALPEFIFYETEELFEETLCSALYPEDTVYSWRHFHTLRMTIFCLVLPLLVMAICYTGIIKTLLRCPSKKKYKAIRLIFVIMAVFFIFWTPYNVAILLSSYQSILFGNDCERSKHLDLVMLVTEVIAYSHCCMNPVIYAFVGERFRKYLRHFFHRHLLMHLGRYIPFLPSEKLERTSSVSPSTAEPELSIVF

[1] = Vapor sorption measurement (index of hygroscopicity), DVS-1 apparatus; type: physicochemical; details: relative humidity 70%, change calculated based on weight at relative humidity 0%, sample about 7 mg
Experimental: A vapor sorption measurement to provide an index of hygroscopicity was performed using a DVS-1 vapor sorption apparatus (manufactured by SMS) under the following conditions. A sample of about 7 mg was used and the relative humidity was increased by 10% within the range of from 0% to 90%, and finally to 95%. The weight change was recorded at each predetermined relative humidity, and the amount of change (%) was calculated based on the weight at relative humidity 0%. As the samples, compound 1-2 (hereinafter to be referred to as a free form) obtained according to the method described in WO 2006/028284, Example 2, compound 1-3 (hereinafter to be referred to as hydrobromide Form I crystal) obtained according to the method described in Example 1 and compound 2 (hereinafter to be referred to as hydrobromide Form II crystal) obtained according to the method described in Example 2 were used.

Br.O=C(O)Cc1csc(SCC(=O)NC[C@H]2CN(Cc3ccc(Cl)c(Cl)c3)CCO2)n1 [free form, (2S)-[4-(carboxymethyl)thiazol-2-ylthio]-N-{[4-(3,4-dichlorobenzyl)morpholin-2-yl]methyl}acetamide]
CCR3 antagonism / inhibition of CCR3-ligand binding (CCR3): inhibit the bond between CCR3 and a ligand thereof, and act as an antagonist
weight change (gain) due to vapor sorption [1]: 3.3%

Br.O=C(O)Cc1csc(SCC(=O)NC[C@H]2CN(Cc3ccc(Cl)c(Cl)c3)CCO2)n1 [hydrobromide Form I crystal, (2S)-[4-(carboxymethyl)thiazol-2-ylthio]-N-{[4-(3,4-dichlorobenzyl)morpholin-2-yl]methyl}acetamide hydrobromide]
weight change (gain) due to vapor sorption ([1]; hydrobromide): 0.1%

Br.O=C(O)Cc1csc(SCC(=O)NC[C@H]2CN(Cc3ccc(Cl)c(Cl)c3)CCO2)n1 [hydrobromide Form II crystal, (2S)-[4-(carboxymethyl)thiazol-2-ylthio]-N-{[4-(3,4-dichlorobenzyl)morpholin-2-yl]methyl}acetamide hydrobromide]
weight change (gain) due to vapor sorption ([1]; hydrobromide): 1.4%
